# In US7993687B2, “Compositions and methods for management of diabetes” (priority 2006, dated 2011):
# Entries after “also recorded” stand apart in the source; their conditions may differ.
# Assays:
# [1] = tested on: Insulin receptor (Tyr1146); assay: Western blot of insulin receptor phosphorylation in H4IIE cells; format: cell-based, rat; settings: 6 minutes
# Experimental: Tissue culture media, antibiotics, fetal bovine serum (FBS) and Nunc tissue culture plates were purchased from Invitrogen Canada Inc. (Burlington, Ontario, Canada, L7P 1A1). Insulin (Sigma-Aldrich Canada Ltd., Oakville, Ontario, Canada, L6H 6J8) was dissolved in water and added directly to cells at a concentration of 250 nM unless otherwise indicated. The BWE was prepared and analyzed as described in Example 1. Two μL of the BWE were added directly to cells unless otherwise indicated. This amount was chosen on the basis of equivalence to insulin. Myo-inositol (Sigma-Aldrich Canada Ltd.) and D-chiro-inositol (Industrial Research Ltd., Wellington, New Zealand) were dissolved in water at an equal concentration to the amounts present in the BWE (Table 3) and 2 μL of each solution (0.1% v/v final concentration) was added directly to cells.
# Rat H4IIE hepatoma cells (American Type Culture Collection, CRL 1548) were cultured following the method disclosed by Yau et al., (1998, Eur. J. Biochem. 253: 91-1). The H4IIE cells were maintained in α-modified Eagle's media containing 10% FBS, 2 mM glutamine, 25 μg·mL^−1 streptomycin and 25 units·mL^−1 penicillin. Cells were plated and grown to 70% confluence. All cells were placed into serum-free medium for 72 h before addition of stimulating agents to ensure entry into a quiescent state. […]
# Cellular protein extracts were prepared by addition of 200 μL 2×SDS/gel loading buffer (0.125 M Tris pH 6.8, 2% SDS, 10% glycerol) to H4IIE cells in 12-well culture dishes. The samples were briefly sonicated, and protein content measured using the BCA protein assay kit. […] HRP was detected using the ECL chemiluminescent system after the membranes had been washed four times.
# Quantification of data obtained on film (Kodak X-omat) was accomplished with a GS800 imaging densitometer (Bio-Rad Laboratories) under nonsaturating conditions with local background subtraction. […]
# H4IIE cells = assay: 3H-deoxyglucose uptake by H4IIE cells; format: cell-based, rat; settings: for 3H-deoxy-glucose uptake (basal) by H4IIE cells: insulin 10^-6 M, 2 μL (0.4% v/v) of BWE, D-CI or MI, versus untreated cells
# Experimental: Tissue culture media, antibiotics, fetal bovine serum (FBS) and Nunc tissue culture plates were purchased from Gibco-BRL (division of Invitrogen Canada Inc.). Insulin (Sigma-Aldrich Canada Ltd.) was dissolved in water and added directly to cells at a final concentration of 10^−6 M. The buckwheat extract was prepared and analyzed as in Example 1. Two μL of the buckwheat extract were added directly to cells unless otherwise indicated. Myo-inositol (Sigma Aldrich Canada Ltd.) and D-chiro-inositol (Industrial Research Ltd.) were dissolved in water at an equal concentration to the amounts present in the BWE (Table 3) and 2 μL of each solution was added directly to cells.
# Rat H4IIE hepatoma cells (American Type Culture Collection, CRL 1548) were cultured as described in Example 3. Briefly, cells were maintained in α-modified Eagle's media containing 10% FBS, 2 mM glutamine, 50 μg·mL^−1 streptomycin and 50 μg·mL^−1 penicillin. Cells were plated and grown to 70% confluence. All cells were placed into serum-free medium for 72 h before addition of stimulating agents to ensure entry into a quiescent state.
# ^3H-deoxyglucose uptake was assayed using the method disclosed by Harrison et al. (1990, J. Biol. Chem. 265(10):5793-5801). Quiescent H4IIE cells, in 24-well culture dishes containing 1 mL serum-free medium, were washed three times with physiological salt solution (PSS) ([…], pH 7.4). Cells were placed into 0.5 mL PSS and pre-incubated with inhibitors for 10 minutes prior to the 20 minute stimulation with treatments (insulin, BWE, D-CI, MI). For all experiments, insulin was added at a concentration of 10^−6 M whereas 2 μL volumes of the BWE, D-CI, or MI (0.4% v/v final concentration) were added to cells unless otherwise indicated in figures. Sugar uptake was initiated by the addition of ^3H-deoxyglucose to a final assay concentration of 0.1 mM glucose (1 mCi/mL) and the cells were subsequently incubated for 5 minutes at 37° C. After two rapid washes with ice-cold PSS (0.5-1 mL/well), the cells were solubilized with 0.4 mL of 0.1% SDS, and ^3H was detected in 3 mL of EcoLume scintillant (MP Biomedicals Inc., Costa Mesa, Calif., USA, 92626).
# Statistical significance between treatments was determined by one-way ANOVA and by Duncan's multiple range test for means testing (SAS v.9.1, SAS Institute Inc., Cary, N.C.). […] Data are expressed as the mean±SE.
# Since insulin has the same effect, we compared the ability of BWE, insulin and two insulin-mimetic compounds (D-CI and MI) to stimulate glucose uptake by H4IIE hepatoma cells. […] Radio-labelled deoxyglucose was added to the medium and glucose uptake was determined by the detection of ^3H in cells.
# Fractions (˜1.0 ml) from each solvent extraction were collected and assayed for their effects on MAPK activation as described in Example 3. The effects of selected fractions, alone or in combination with insulin, on the uptake of labelled glucose were assessed following the methods described in Example 4. […] The effects of the solvent fractions on H4IIE cells were assessed with 20-min exposure periods after which, sugar uptake was initiated by the addition of ^3H-deoxyglucose to a final assay concentration of 0.1 mM glucose (1 mCi/mL) and the cells were subsequently incubated for 5 minutes at 37° C. After two rapid washes with ice-cold PSS (0.5-1 mL/well), the cells were solubilized with 0.4 mL of 0.1% SDS, and ^3H was detected in 3 mL of EcoLume scintillant. […]
Molecule,phosphorylation of InsR [1],3H-deoxy-glucose uptake (basal) by H4IIE cells (H4IIE cells),"effect of the inhibitor on insulin-stimulated glucose uptake (FIG. 23) (H4IIE cells; H4IIE cells, pre-incubated with inhibitor, then insulin)"
"O[C@H]1[C@H](O)[C@@H](O)[C@H](O)[C@@H](O)[C@H]1O [MI, myo-inositol]",do not provide comparable stimulation,not statistically different from untreated cells,–
"OC1C(O)C(O)C(O)C(O)C1O [D-CI, D-chiro-inositol]",do not provide comparable stimulation,stimulated glucose uptake,–
"insulin: Insulin (Sigma-Aldrich) dissolved in water, positive comparator",phosphorylated in response to insulin; also recorded: stimulated by insulin only,stimulated glucose uptake,–
COc1cccc(-c2cc(=O)c3ccccc3o2)c1N [PD98059],–,–,decreased insulin-stimulated glucose uptake
